# Key:
# Format in all cases: in vivo, BALB/c mice
# [1] = test system: mouse fibrosarcoma CMS5a cells; assay: Antitumor effect of combined administration in CMS5a tumor-bearing mice (Example 3); conditions: STX-1159 40 mg/kg p.o. days 5 to 9 + PD-1 Ab 200 μg/mouse i.p. days 12, 14 and 16; t-test versus control; FIG. 3
# Text: (§1) Six-week-old female BALB/c mice were purchased from Japan SLC, Inc., conditioned and raised for about a week in University of Shizuoka, Experimental Animal Center, and then used for experiments.
# (§2) Hair on a back part and ventral parts of the BALB/c mouse was shaved, and 1×10^6 mouse fibrosarcoma CMS5a cells were subcutaneously transplanted in each of the left and right ventral parts (day 0). Five days after the transplantation, the longer diameter (mm) and the shorter diameter (mm) of the tumor were measured using a digital caliper (A&D Company, Limited), and a tumor volume was calculated. The expression for calculation of the tumor volume was as follows: tumor volume (mm^3)=0.5×(longer diameter mm)×(shorter diameter mm)^2. An average of the tumor volumes on the left and the right was calculated for each individual, and on the basis of the thus-obtained value, the mice were divided into groups in such a manner that the variations in tumor volume between individuals in the groups were the same.
# STX-1159 was orally administered at 40 mg/kg continuously for five days. […]
# The evaluation item was an individual tumor volume. From day 5, the longer diameter (mm) and the shorter diameter (mm) of the tumor were measured at an interval of one or two days using a digital caliper. […]
# [2] = test system: mouse bowel cancer cell line CT26 cells; assay: Antitumor effect of combined administration in CT26 tumor-bearing mice (Example 1); conditions: FIG. 1
# Text: Six-week-old female BALB/c mice (72 mice) were purchased from Japan SLC, Inc., conditioned and raised for 5 days in University of Shizuoka, Experimental Animal Center, and then used for experiments.
# Hair on a back part and ventral parts of the BALB/c mouse was shaved, and 1×10^6 mouse bowel cancer cell line CT26 cells (ATCCs) were subcutaneously transplanted in each of the left and right ventral parts (day 0). Five days after the transplantation, the longer diameter (mm) and the shorter diameter (mm) of the tumor were measured using a digital caliper (A&D Company, Limited), and a tumor volume was calculated. […]
# An average of the tumor volumes on the left and the right was calculated for each individual, and on the basis of the thus-obtained value, the mice were divided into eight groups (nine mice in each group) in such a manner that the variations in tumor volume between individuals in the groups were the same. […]
# The evaluation item was an average of the tumor volumes on the left and the right in each individual. From day 5, the longer diameter (mm) and the shorter diameter (mm) of the tumor were measured at an interval of one day or two days using a digital caliper. […] An average of the tumor volumes on the left and the right was calculated for each individual. […]
# [3] = test system: mouse bowel cancer cell line CT26 cells; assay: Antitumor effect of combined administration in CT26 tumor-bearing mice (Example 2); conditions: STX-1159 40 mg/kg p.o. days 6, 8 and 10 + PD-1 Ab 50 μg/mouse i.p. days 8, 10 and 13; compared with either agent alone; FIG. 2
# Text: as §1
# as §2, with “bowel cancer cell line CT26” for “fibrosarcoma CMS5a”, “cells (ATCCs)” for “cells”, “Six” for “Five”
# STX-1159 was orally administered at 40 mg/kg three times every other day. […]
# The evaluation item was an individual tumor volume. From day 6, the longer diameter (mm) and the shorter diameter (mm) of the tumor were measured at an interval of one to four days using a digital caliper. […]
smiles,measurement,setting,value
"O=C(Nc1nnc(-c2ccco2)o1)c1cc(-c2ccccc2)nc2ccc(OC(F)(F)F)cc12 [STX-1159, N-[5-(2-furyl)-1,3,4-oxadiazol-2-yl]-2-phenyl-6-trifluoromethoxy-4-quinoline carboxamide]",tumor shrinkage (tumor volume) versus control group,[1],showed more significant tumor shrinkage over the control group
same,antitumor effect (tumor volume),"[2]; STX-1159 40 mg/kg p.o. days 5 to 9 in advance + PD-1 Ab 50 μg/mouse i.p. days 12, 14 and 16, compared with simultaneous and later administration groups",much higher antitumor effect
same,antitumor effect (tumor volume),"[2]; simultaneous: STX-1159 40 mg/kg p.o. days 12 to 16 + PD-1 Ab 50 μg/mouse i.p. days 12, 14 and 16, compared with each single-agent group",antitumor effect was lower
same,antitumor effect (tumor volume),[3],much higher antitumor effect

# Source: patent US20220218693A1, “IMMUNE CHECKPOINT INHIBITOR COMBINATION THERAPY USING QUINOLINE CARBOXAMIDE DERIVATIVE” (KABUSHIKI KAISHA YAKULT HONSHA, priority 2019, published 2022)
